Counter-ions that a name gives are not always drawn. Blank lines part the entries; values can stand above or below the compound they belong to.
Columns and labels:
[1] = tested on: Host vs Graft Reaction in Mice; experiment: Inhibitory effects of test compounds on host vs graft reaction in mice (popliteal lymph node weight); assay type: in vivo, C3H/HeN mice
Procedure: Inhibitory Effects of Test Compounds on Host vs Graft Reaction in Mice
This experiment was performed according to the method described in Transplantation 55(3) (1993): 578-591. Spleens were collected from 7 to 12 week old male BALB/c mice (available from CLEA JAPAN Inc., CHARLES RIVER JAPAN Inc., or JAPAN SLC Inc.). The spleens were placed in an RPMI-1640 medium (SIGMA, GIBCO […] Inc., or IWAKI GLASS Co., Ltd.) and were gently pressed between two slide glasses and then passed through a cell strainer (70 μm, Falcon) to form a cell suspension. The suspension was then centrifuged and the supernatant was discarded. An ammonium chloride-Tris isotonic buffer was added to the suspension to lyse erythrocytes. The cells were then centrifuged three times in RPMI-1640 medium for washing and were resuspended in an RPMI-1640 medium. To this suspension, mitomycin C (KYOWA HAKKO KOGYO Co., Ltd.) was added to a final concentration of 25 μg/mL and the suspension was incubated for 30 minutes at 37° C. in a 5% CO2 atmosphere. The cells were centrifuged three times in RPMI-1640 medium for washing and were resuspended in an RPMI-1640 medium so that the medium would contain 2.5×10^8 cells/mL. This suspension served as a “stimulation cell suspension.” Using a 27 G needle, along with a microsyringe (Hamilton), 20 μL (5×10^6 cells/mouse) of the stimulation cell suspension was subcutaneously injected into the right hind footpad of 6 to 12 week old male C3H/HeN mice (CLEA JAPAN Inc., CHARLES RIVER JAPAN Inc., or JAPAN SLC Inc.). As a normal control group, a group of mice were injected with RPMI-1640 medium alone. 4 days after the injection, right popliteal lymph nodes were collected and were weighed on a Mettler AT201 electronic scale (METTLER TOLEDO Co., Ltd.). Each animal was intraperitoneally administered a test compound once a day for four consecutive days starting on the day of the injection of the stimulation cells (i.e., total of 4 times). As a control group, a group of the animals were administered the same solvent as that used in the preparation of each test compound.

[2] = Mus musculus, ip, dose 0.1 mg/kg
[3] = Mus musculus, ip, dose 0.03 mg/kg

melting point: 154 to 156 °C
Compound: Cl.NC(CO)CCCc1ccc(S(=O)(=O)c2cccc(OCc3ccccc3)c2)cc1Cl (stereo not shown)

melting point: 166 to 168 °C
Compound: Cl.NC(CO)CCCc1ccc(Sc2cccc(C(F)(F)F)c2)cc1Cl (stereo not shown)

Compound: CCC(N)(CO)CCCc1ccc(Sc2cccc(OCc3ccccc3)c2)cc1Cl (racemic) [Example 188, (±)-2-amino-5-[4-(3-benzyloxyphenylthio)-2-chlorophenyl]-2-ethylpentane-1-ol hydrochloride]
inhibition in vivo at 0.1 mg/kg [1, 2]: 78%

Compound: CCC(N)(CO)CCc1ccc(Sc2cccc(OCc3ccccc3)c2)cc1Cl (racemic) [Example 194, (±)-2-amino-4-[4-(3-benzyloxyphenylthio)-2-chlorophenyl]-2-ethylbutane-1-ol]
inhibition in vivo at 0.1 mg/kg [1, 2]: 70%

Compound: CC(N)(CO)CCCc1ccc(Sc2cccc(OCc3ccccc3)c2)cc1Cl (single isomer, unassigned; (+)) [Example 184, (+)-2-amino-5-[4-(3-benzyloxyphenylthio)-2-chlorophenyl]-2-methylpentane-1-ol]
Inhibition (%) ([1]; dose 0.1 mg/kg): 45%

Compound: CC(N)(CO)CCCc1ccc(Sc2cccc(OCc3ccccc3)c2)cc1Cl (single isomer, unassigned; (+)) [Example 185, (+)-2-amino-5-[4-(3-benzyloxyphenylthio)-2-chlorophenyl]-2-methylpentane-1-ol]
Inhibition (%) ([1]; dose 0.1 mg/kg): 88%

Compound: CCC(N)(CO)CCCc1ccc(Sc2cccc(OCc3ccccc3)c2)cc1Cl (single isomer, unassigned; (+)) [Example 189, (+)-2-amino-5-[4-(3-benzyloxyphenylthio)-2-chlorophenyl]-2-ethylpentane-1-ol]
inhibition in vivo at 0.03 mg/kg [1, 3]: 71%

Compound: CC(N)(CO)CCc1ccc(Sc2cccc(OCc3ccccc3)c2)cc1Cl.Cl (single isomer, unassigned; (+)) [Example 191, (+)-2-amino-4-[4-(3-benzyloxyphenylthio)-2-chlorophenyl]-2-methylbutane-1-ol hydrochloride]
Inhibition (%) ([1]; dose 0.1 mg/kg, hydrochloride): 41%

Compound: CC(N)(CO)CCc1ccc(Sc2cccc(OCc3ccccc3)c2)cc1Cl.Cl (single isomer, unassigned; (+)) [Example 192, (+)-2-amino-4-[4-(3-benzyloxyphenylthio)-2-chlorophenyl]-2-methylbutane-1-ol hydrochloride]
Inhibition (%) ([1]; dose 0.1 mg/kg, hydrochloride): 86%

melting point: 55 to 57 °C
Compound: CCCC(N)(CO)CCCc1ccc(Sc2cccc(OCc3ccccc3)c2)cc1Cl.Cl (single isomer, unassigned; (+)) [Example 209, (+)-2-amino-5-[4-(3-benzyloxyphenylthio)-2-chlorophenyl]-2-propylpentane-1-ol]
Inhibition (%) ([1]; dose 0.03 mg/kg): 71%

Compound: CCC(N)(CO)CCc1ccc(Sc2cccc(OCc3ccccc3)c2)cc1Cl (single isomer, unassigned; (-)) [Example 196, (−)-2-amino-4-[4-(3-benzyloxyphenylthio)-2-chlorophenyl]-2-ethylbutane-1-ol]
inhibition in vivo at 0.03 mg/kg [1, 3]: 63%

Compound: OCC(CCCc1ccc(Oc2cccc(C(F)(F)F)c2)cc1)Nc1ccccc1 (stereo not shown) [Example 127, 2-phenylamino-5-[4-(3-trifluoromethylphenoxy)phenyl]pentane-1-ol]
inhibition in vivo at 10 mg/kg ([1]; Mus musculus, ip, dose 10 mg/kg): 57%

Compound: CC(O)C(CCCc1ccc(Oc2cccc(OCc3ccccc3)c2)cc1Cl)NC(=O)OC(C)(C)C (stereo not shown) [Example 131, 6-[4-(3-benzyloxyphenoxy)-2-chlorophenyl]-3-t-butoxycarbonylaminohexane-2-ol]
inhibition in vivo at 0.3 mg/kg ([1]; Mus musculus, ip): 57%

Compound: CC(O)C(N)CCCc1ccc(Sc2cccc(OCc3ccccc3)c2)cc1Cl (stereo not shown) [Example 135, 3-amino-6-[4-(3-benzyloxyphenylthio)-2-chlorophenyl]hexane-2-ol hydrochloride]
inhibition in vivo at 1 mg/kg ([1]; Mus musculus, ip, dose 1 mg/kg): 69%

Compound: NC(CO)(CCO)CCCc1ccc(Sc2cccc(OCc3ccccc3)c2)cc1Cl (stereo not shown) [Example 148, 3-amino-6-[4-(3-benzyloxyphenylthio)-2-chlorophenyl]-3-hydroxymethylhexanol hydrochloride]
inhibition in vivo at 0.3 mg/kg ([1]; Mus musculus, ip): 71%

Compound: NC(CO)(CCCO)CCCc1ccc(Sc2cccc(OCc3ccccc3)c2)cc1Cl (stereo not shown) [Example 151, 4-amino-7-[4-(3-benzyloxyphenylthio)-2-chlorophenyl]-4-hydroxymethylheptanol hydrochloride]
inhibition in vivo at 0.03 mg/kg [1, 3]: 65%

Compound: CCCC(N)(CO)CCCc1ccc(Sc2cccc(OCc3ccccc3)c2)cc1Cl (stereo not shown) [Example 197]
inhibition in vivo at 0.03 mg/kg [1, 3]: 54%

melting point: 78 to 81 °C
Compound: CC(=O)NC(CO)CCc1ccc(Sc2cccc(OCc3ccccc3)c2)cc1Cl (stereo not shown) [Example 201, 2-acetylamino-4-[4-(3-benzyloxyphenylthio)-2-chlorophenyl]butane-1-ol]

Compound: C#CCC(N)(CO)CCCc1ccc(Sc2cccc(OCc3ccccc3)c2)cc1Cl (stereo not shown) [Example 222, 2-amino-5-[4-(3-benzyloxyphenylthio)-2-chlorophenyl]-2-propargylpentane-1-ol hydrochloride]
inhibition in vivo at 0.3 mg/kg ([1]; Mus musculus, ip): 57%

Compound: CC(C)CC(N)(CO)CCCc1ccc(Sc2cccc(OCc3ccccc3)c2)cc1Cl (stereo not shown) [Example 223, 2-amino-5-[4-(3-benzyloxyphenylthio)-2-chlorophenyl]-2-isobutylpentane-1-ol hydrochloride]
inhibition in vivo at 0.3 mg/kg ([1]; Mus musculus, ip): 70%

Compound: CCC(N)=C(CO)CCCc1ccc(Sc2cccc(OCc3ccccc3)c2)cc1Cl [Example 227, 3-amino-7-[4-(3-benzyloxyphenylthio)-2-chlorophenyl]-4-hydroxymethyl-3-heptene hydrochloride]
inhibition in vivo at 0.3 mg/kg ([1]; Mus musculus, ip): 58%
